This assay has as its system HUVECs. The assay can be described thus: Tubule formation assay on Matrigel. The format is cell-based, Human. Particulars: 25 μM, 24 hrs, assessed under microscope. How it is done: FIG. 5: HUVECs were plated on Matrigel, then treated wither DMSO or Compound 1 for 24 hrs. Tubule formation was assessed by looking under microscope.
Human umbilical vascular endothelial cells (HUVECs) (50,000 cells/well) were plated on Matrigel. After 30 min, the cells were treated either with DMSO or 25 μM Compound 1. Tubule formation was assessed by observing plates under microscope. FIG. 6 is represents 24 hr time point for DMSO and Compound 1.

Structures are written as SMILES.

`N#Cc1ccc(Cn2cc(C=C3C(=O)NC(=O)NC3=O)c3ccccc32)cc1` [Compound 1, 4-((3-((2,4,6-trioxotetrahydropyrimidin-5(6H)-ylidene)methyl)-1H-indol-1-yl)meth-yl)benzonitrile]: the “Tubule formation by HUVECs” value was “inhibited the tubule formation”.

The record behind these values is patent publication US8304421B2, “Indole compounds and their use as radiation sensitizing agents and chemotherapeutic agents” (Vanderbilt University, priority 2008, dated 2012).
